{
  "source": "patent US20260115288A1",
  "about": "“T CELL MANUFACTURING COMPOSITIONS AND METHODS” (BioNTech US Inc., priority 2022, published 2026)",
  "test_system": "antigen specific CD8+ T cells",
  "experiment": "Addition of IL-21 to NEO-STIM.RNA cultures",
  "format": "cell-based, human",
  "source_text": "In order to improve the NEO-STIM protocol using RNA, IL-21 was explored as an addition to the protocol.\nIn order to improve the NEO-STIM protocol using RNA, IL-21 was explored as an addition to the protocol. […] Using IL-21 in NEO-STIM increases central memory phenotype in antigen specific CD8^+ T cells.",
  "data": [
    {"substance": "IL-21: cytokine added to the NEO-STIM protocol using RNA", "values": [
      {"measurement": "effect on expansion of T cells", "setting": "NEO-STIM process using RNA encoded neoantigenic epitopes", "result": "improves expansion of T cells"},
      {"measurement": "effect on central memory phenotype in antigen specific CD8+ T cells", "setting": "NEO-STIM.RNA cultures", "result": "increases the central memory phenotype"},
      {"measurement": "effect on priming of specific T cells", "setting": "NEO-STIM.RNA cultures", "result": "improves the priming of specific T cells"}
    ]}
  ]
}
